In brackets after ≈: the same amount, converted by molar mass.
How the values were obtained:
Format in all cases: functional
Staphylococcus aureus [1] = experiment: Antibacterial activity against methicillin-resistant Staphylococcus aureus ATCC 33591 after 16 hrs by CLSI-based broth microdilution method; conditions: ATCC 33591, 16 h
Staphylococcus aureus [2] = experiment: Antibacterial activity against Staphylococcus aureus ATCC 25923 after 16 hrs by CLSI-based broth microdilution method; conditions: ATCC 25923, 16 h
Bacillus cereus = experiment: Antibacterial activity against Bacillus cereus ATCC 14579 after 16 hrs by CLSI-based broth microdilution method; conditions: ATCC 14579, 16 h

Compound | MIC (Staphylococcus aureus [1]) [µg/mL] | MIC (Staphylococcus aureus [2]) [µg/mL] | MIC (Bacillus cereus) [µg/mL]
CC(=O)NC[C@H]1CN(c2ccc(N3CCOCC3)c(F)c2)C(=O)O1 [LINEZOLID] | 1 (≈ 2.96 µM) | 0.5 (≈ 1.48 µM) | 1 (≈ 2.96 µM)
C#CCCC/C=C/CCCCc1cccc(O)c1 | 8 (≈ 33 µM) | 8 (≈ 33 µM) | 8 (≈ 33 µM)
CCC/C=C/CCCCc1cccc(O)c1 | 16 (≈ 73.3 µM) | 16 (≈ 73.3 µM) | 16 (≈ 73.3 µM)
